Legend:
human MAO-B = biological target: T1, human MAO-B (Homo sapiens, UniProt P27338); assay: IC50 determination for MAO-B inhibition (kynuramine, fluorescence); type: biochemical; details: for Selectivity index: SI = IC50(MAO-A)/IC50(MAO-B); for IC50: recombinant hMAO-B, kynuramine 50 μM, mean ± SD (triplicate)
T1 construct: purchased Sigma-Aldrich
T1 sequence (P27338 1-520): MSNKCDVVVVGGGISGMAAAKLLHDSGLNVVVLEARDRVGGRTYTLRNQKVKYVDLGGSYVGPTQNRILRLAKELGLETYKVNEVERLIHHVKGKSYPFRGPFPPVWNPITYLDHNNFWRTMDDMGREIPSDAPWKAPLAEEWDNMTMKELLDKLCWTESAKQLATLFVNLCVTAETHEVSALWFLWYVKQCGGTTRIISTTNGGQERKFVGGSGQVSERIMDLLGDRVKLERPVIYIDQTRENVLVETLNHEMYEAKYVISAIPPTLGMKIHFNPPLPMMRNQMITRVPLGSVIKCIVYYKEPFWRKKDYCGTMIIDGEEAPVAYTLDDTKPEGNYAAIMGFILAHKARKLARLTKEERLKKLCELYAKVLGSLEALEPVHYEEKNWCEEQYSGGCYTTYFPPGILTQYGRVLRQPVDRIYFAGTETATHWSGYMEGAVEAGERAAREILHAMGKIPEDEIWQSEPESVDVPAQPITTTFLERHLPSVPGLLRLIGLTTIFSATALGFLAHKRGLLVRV
Method: (§1) IC50 values for the inhibition of MAO were determined by using the recombinant human MAO-A and MAO-B enzymes (Sigma-Aldrich). Enzyme reactions were performed at a final volume of 200 µL in white 96-well microplates (Eppendorf), with the reaction solvent consisting of potassium phosphate buffer (100 mM, pH 7.4, adjusted to isotonicity with KCl). The reactions contained the nonselective MAO substrate, kynuramine (50 μM), and the test inhibitors at 0.003–100 µM. The test compounds were initially dissolved in DMSO (100%), and after addition to the reactions yielded a concentration of 4% DMSO. Control reactions were included, which contained substrate and 4% DMSO but no test inhibitor. The MAO reactions were started by adding MAO-A (0.0075 mg protein/mL) or MAO-B (0.015 mg protein/mL), and were subsequently incubated for a period of 20 min (37 °C) in a convection oven. A volume of 80 µL 2 N sodium hydroxide was added to the reactions, and the fluorescence intensity of 4-hydroxyquinoline (the end-product of the MAO-catalyzed metabolism of kynuramine) in the reactions was measured at λex 310 and λem 400 nm. To quantify 4-hydroxyquinoline, a calibration curve (linear) ranging from 0.047 to 1.56 μM, was employed. […] These measurements were carried out in triplicate and the IC50 values are presented as the mean ± standard deviation (SD)[18].
(§2) The formation of the dihydropyridinium species (MMDP^+) as a MAO-catalyzed oxidation product of MMTP was monitored at 420 nm. […] Based on this, the IC50 values were determined using kynuramine as a nonselective substrate. The rate of oxidation of kynuramine by MAO was monitored by measuring the fluorescence of the oxidation product, 4-hydroxyquinoline (λex= 310 nm; λem= 400 nm).

human MAO-A = biological target: T2, human MAO-A (Homo sapiens, UniProt P21397); assay: IC50 determination for MAO-A inhibition (kynuramine, fluorescence); type: biochemical; details: recombinant hMAO-A, kynuramine 50 μM, mean ± SD (triplicate)
T2 construct: purchased Sigma-Aldrich
T2 sequence (P21397 1-527): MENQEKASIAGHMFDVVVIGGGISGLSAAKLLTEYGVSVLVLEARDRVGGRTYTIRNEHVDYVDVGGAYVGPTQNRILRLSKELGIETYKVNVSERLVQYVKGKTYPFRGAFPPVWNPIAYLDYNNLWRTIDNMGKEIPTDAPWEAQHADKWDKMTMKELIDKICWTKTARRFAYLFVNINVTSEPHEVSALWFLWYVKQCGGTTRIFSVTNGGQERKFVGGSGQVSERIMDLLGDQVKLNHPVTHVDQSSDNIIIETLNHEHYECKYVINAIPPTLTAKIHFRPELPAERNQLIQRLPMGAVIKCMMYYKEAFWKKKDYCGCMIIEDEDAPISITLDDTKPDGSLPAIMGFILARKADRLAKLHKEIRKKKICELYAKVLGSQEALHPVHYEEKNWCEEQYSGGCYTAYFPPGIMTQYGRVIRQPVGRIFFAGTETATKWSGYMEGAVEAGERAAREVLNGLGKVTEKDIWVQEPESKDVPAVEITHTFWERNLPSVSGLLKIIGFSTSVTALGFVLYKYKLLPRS
Method: as §1, §2

CSc1ccc(C(=O)/C=C/c2cccc(Br)c2)cc1 [Compound 11, (E)-3–(3-bromophenyl)-1–(4-(methylthio)phenyl)prop-2-en-1-one]
Selectivity index (human MAO-B): 487 | IC50 (human MAO-B): 0.198 ± 0.012 µM | IC50 (human MAO-A): 96.6 ± 5.21 µM | melting point: 139 to 143 °C

CN(C)c1ccc(/C=C/C(=O)c2ccc(C(F)(F)F)cc2)cc1 [Compound 2, (E)-3–(4-(dimethylamino)phenyl)-1–(4-(trifluoromethyl)phenyl)prop-2-en-1-one]
Selectivity index (human MAO-B): >260 | IC50 (human MAO-B): 0.383 ± 0.061 µM | IC50 (human MAO-A): > 100 µM

O=C(/C=C/c1ccc(Br)cc1)c1ccc2c(c1)OCO2 [Compound 15, (E)-1-(benzo[d][1,3]dioxol-5-yl)-3–(4-bromophenyl)prop-2-en-1-one]
Selectivity index (human MAO-B): 1.7 | IC50 (human MAO-B): 0.102 ± 0.009 µM | IC50 (human MAO-A): 0.173 ± 0.003 µM | melting point: 150 to 153 °C

O=C(/C=C/c1cccc2c1OCO2)c1cccc(Cl)c1 [Compound 8, (E)-3-(benzo[d][1,3]dioxol-4-yl)-1–(3-chlorophenyl)prop-2-en-1-one]
Selectivity index (human MAO-B): >1720 | IC50 (human MAO-B): 0.058 ± 0.009 µM | IC50 (human MAO-A): > 100 µM | melting point: 79 to 83 °C

O=C(/C=C/c1ccc([N+](=O)[O-])cc1)c1ccc(F)cc1 [Compound 12, (E)-1–(4-fluorophenyl)-3–(4-nitrophenyl)prop-2-en-1-one]
Selectivity index (human MAO-B): 172 | IC50 (human MAO-B): 0.069 ± 0.006 µM | IC50 (human MAO-A): 11.9 ± 0.822 µM | melting point: 165 to 169 °C

O=C(/C=C/c1cccc2c1OCO2)c1ccc(Br)cc1 [Compound 5, (E)-3-(benzo[d][1,3]dioxol-4-yl)-1–(4-bromophenyl)prop-2-en-1-one]
Selectivity index (human MAO-B): 67 | IC50 (human MAO-B): 0.106 ± 0.012 µM | IC50 (human MAO-A): 7.18 ± 0.755 µM | melting point: 96 to 100 °C

COc1cc(OC)c(/C=C/C(=O)c2ccc(F)cc2)c(OC)c1 [Compound 19, (E)-1–(4-fluorophenyl)-3–(2,4,6-trimethoxyphenyl)prop-2-en-1-one]
Selectivity index (human MAO-B): <0.004 | IC50 (human MAO-B): > 100 µM | IC50 (human MAO-A): 0.444 ± 0.039 µM

CN(C)c1ccc(/C=C/C(=O)c2ccc(Cl)cc2)cc1 [Compound 4, (E)-1–(4-chlorophenyl)-3–(4-(dimethylamino)phenyl)prop-2-en-1-one]
Selectivity index (human MAO-B): >310 | IC50 (human MAO-B): 0.321 ± 0.023 µM | IC50 (human MAO-A): > 100 µM

COc1ccccc1/C=C/C(=O)c1ccc(Br)cc1 [Compound 20, (E)-1–(4-bromophenyl)-3–(2-methoxyphenyl)prop-2-en-1-one]
Selectivity index (human MAO-B): 5.8 | IC50 (human MAO-B): 0.999 ± 0.276 µM | IC50 (human MAO-A): 5.81 ± 0.878 µM | melting point: 73 to 77 °C

CCOc1cccc(/C=C/C(=O)c2ccc(Br)cc2)c1OCC [Compound 22, (E)-1–(4-bromophenyl)-3–(2,3-diethoxyphenyl)prop-2-en-1-one]
IC50 (human MAO-B): 15.6 ± 0.803 µM | IC50 (human MAO-A): > 100 µM | melting point: 75 to 79 °C

COc1cc(OC)c(/C=C/C(=O)c2ccc(Br)cc2)c(OC)c1 [Compound 18, (E)-1–(4-bromophenyl)-3–(2,4,6-trimethoxyphenyl)prop-2-en-1-one]
Selectivity index (human MAO-B): <0.005 | IC50 (human MAO-B): > 100 µM | IC50 (human MAO-A): 0.56 ± 0.076 µM

CN(C)c1ccc(/C=C/C(=O)c2ccc(Br)cc2)cc1 [Compound 3, (E)-1–(4-bromophenyl)-3–(4-(dimethylamino)phenyl)prop-2-en-1-one]
Selectivity index (human MAO-B): >185 | IC50 (human MAO-B): 0.539 ± 0.058 µM | IC50 (human MAO-A): > 100 µM

COc1cccc(/C=C/C(=O)c2ccc(Br)cc2)c1OC [Compound 21, (E)-1–(4-bromophenyl)-3–(2,3-dimethoxyphenyl)prop-2-en-1-one]
Selectivity index (human MAO-B): 37 | IC50 (human MAO-B): 0.174 ± 0.015 µM | IC50 (human MAO-A): 6.59 ± 0.422 µM | melting point: 120 to 124 °C

COc1cc(Br)ccc1/C=C/C(=O)c1ccc(S(C)(=O)=O)cc1 [Compound 10, (E)-3–(4-bromo-2-methoxyphenyl)-1–(4-(methylsulfonyl)phenyl)prop-2-en-1-one]
Selectivity index (human MAO-B): 150 | IC50 (human MAO-B): 0.582 ± 0.03 µM | IC50 (human MAO-A): 87.3 ± 9.34 µM | melting point: 199 to 203 °C

CS(=O)(=O)c1ccc(C(=O)/C=C/c2ccc(Br)cc2)cc1 [Compound 9, (E)-3–(4-bromophenyl)-1–(4-(methylsulfonyl)phenyl)prop-2-en-1-one]
Selectivity index (human MAO-B): >240 | IC50 (human MAO-B): 0.404 ± 0.064 µM | IC50 (human MAO-A): > 100 µM | melting point: 206 to 210 °C

O=C(/C=C/c1ccc([N+](=O)[O-])cc1)c1ccc(Cl)cc1 [Compound 13, (E)-1–(4-chlorophenyl)-3–(4-nitrophenyl)prop-2-en-1-one]
IC50 (human MAO-B): 0.034 ± 0.006 µM | IC50 (human MAO-A): 45.5 ± 2.93 µM | melting point: 162 to 166 °C

CN(C)c1ccc(/C=C/C(=O)c2cccc(C(F)(F)F)c2)cc1 [Compound 1, (E)-3–(4-(dimethylamino)phenyl)-1–(3-(trifluoromethyl)phenyl)prop-2-en-1-one]
Selectivity index (human MAO-B): 116 | IC50 (human MAO-B): 0.123 ± 0.003 µM | IC50 (human MAO-A): 14.3 ± 1.81 µM

O=C(/C=C/c1cccc2c1OCO2)c1ccc(Cl)cc1 [Compound 6, (E)-3-(benzo[d][1,3]dioxol-4-yl)-1–(4-chlorophenyl)prop-2-en-1-one]
Selectivity index (human MAO-B): 130 | IC50 (human MAO-B): 0.139 ± 0.019 µM | IC50 (human MAO-A): 18.1 ± 3.49 µM | melting point: 83 to 87 °C

O=C(/C=C/c1cccc2c1OCO2)c1cccc(Br)c1 [Compound 7, (E)-3-(benzo[d][1,3]dioxol-4-yl)-1–(3-bromophenyl)prop-2-en-1-one]
Selectivity index (human MAO-B): >1230 | IC50 (human MAO-B): 0.081 ± 0.012 µM | IC50 (human MAO-A): > 100 µM | melting point: 107 to 111 °C

— paper PMC6442233, “SAR and molecular mechanism studies of monoamine oxidase inhibition by selected chalcone analogs” (Journal of Enzyme Inhibition and Medicinal Chemistry, 2019)
